Laboratory results: a melting point compilation (Tetko et al.; mined from patent text by program, amines drawn as free bases though some values may be those of a salt)

| SMILES | melting point [°C] |
| --- | --- |
| COc1cccc(C2(CC(=O)N(C)C)C=CCCC2)c1 (stereo unspecified) | 161 to 162 |
| Cc1nc(C)c(Cl)c(NCc2nccc(N(C)CCN3CCc4ccccc4C3)c2Cl)n1 | 81 to 93 |
| O=P(O)(O)COc1c(Br)cc(-c2c3ccccc3c(Br)c3sc4ccccc4c23)cc1Br | 334 to 335 |
| Cc1cc(C)n2nc(Sc3ccccc3Cl)nc2n1 | 143 |
| NS(=O)(=O)c1nc2ccc(OC(=O)Cc3ccccc3)cc2s1 | 177 to 179 |
| CCc1nn2c(-c3cccc(C(F)(F)F)c3)c(C)cnc2c1C#N | 163 to 164 |
| COc1c(C(C)(C)C)cc(P(c2cc(C(C)(C)C)c(OC)c(C(C)(C)C)c2)c2ccccc2Br)cc1C(C)(C)C | 142 to 143 |
| CCCN1N=C2C(=Cc3ccc(Cl)cc3)CSCC2C1c1ccc(Cl)cc1 (stereo unspecified) | 118 to 122 |
| Cc1cccc(C)c1NC=O | 163 to 164 |
| CSC(=Cc1ccccc1N(Cc1ccccc1)c1c(Cl)cccc1Cl)S(C)=O (stereo unspecified) | 194 to 196 |
| CCCCN(C1CCCOc2ccccc21)S(C)(=O)=O (stereo unspecified) | 78 to 79 |
| Cc1ccc(S(=O)(=O)OCCc2cccc3c(S(=O)(=O)c4ccccc4)c[nH]c23)cc1 | 142 to 145 |
| COc1ccc(N2CCN(c3c(C)c(C)c4c(c3C)CC3(CCCC3)O4)CC2)cc1 | 137 to 139 |
| CCN1C=C2C=C(S)N=CN2N1 | 251 to 254 |
| Fc1cc(Cl)ccc1NC(=S)C1CCCC=C1N1CCOCC1 (stereo unspecified) | 86 to 88 |
| O=C1Nc2cc(CN3CCN(c4ccc(C(=O)N5CCCC5)cc4)CC3)cnc2N2CCC[C@@H]12 | 121 |
| CCC(=O)Nc1cc(OC)cc2c1CC(C)O2 (stereo unspecified) | 101 |
| O=C1COc2cc(F)c([N+](=O)[O-])cc2N1 | 200 to 202 |
| CCOc1nn(Cc2ccc(OCc3nc(-c4ccco4)oc3C)nc2)cc1CC(=O)O | 155 to 156 |
| Nc1sc2c(c1C(=O)c1ccc(Cl)s1)CCN(Cc1ccccc1)C2 | 81 to 83 |
| CCCCCCCCCCCCCCCCCCOCc1ccc(C(=O)O)cc1OCCCCCCCCCCCCCCCCCC | 87 to 88 |
| CSc1nnc(-c2ccccc2CS(N)(=O)=O)o1 | 138 to 140 |

| SMILES | melting point [°C] |
| --- | --- |
| COC1C(OC(=O)NC(=O)CCl)CCC(O)(CSC)C1C1(C)OC1CC=C(C)C (stereo unspecified) | 101 to 102 |
| O=c1cnc(-c2ccccc2)nn1CC(F)(F)F | 129 to 131 |
| COc1ccccc1NC(=O)Nc1nc(Nc2ccccc2-c2ccccc2)nc(N(CCC(=O)O)Cc2cc(C(F)(F)F)cc(C(F)(F)F)c2)n1 | 132 to 135 |
| O=C1CCC(=O)N1Cc1cccc(Nc2n[nH]c3ncnc(Nc4cccc(Cl)c4)c23)c1 | 140 to 142 |
| O=C1CC2(C(=O)N1)C(=O)N(Cc1ccc(Br)cc1F)C(=O)c1ccccc12 (stereo unspecified) | 112 to 114 |
| CCOC(=O)c1cnc2c(OC)nc(OC)cc2c1Cl | 200 to 210 |
| CS(=O)(=O)c1ccc(-c2cc(C(CCCO[N+](=O)[O-])=NO)nn2C2CCCCC2)cc1 | 121 to 123 |
| O=C1C(c2cccc(C(F)(F)F)c2Cl)=NN(CCCCC(F)(F)F)C2C=C(Cl)C=CC12 (stereo unspecified) | 137 to 138 |
| COc1ccccc1C1OC(=O)NC1=O (stereo unspecified) | 175 to 177 |
| O=S1(=O)N(CCN2CCN(c3ccc(F)cc3)CC2)c2cccc3c2N1CCC3 | 118 |
| C=Cc1c(F)c(F)cc(C(=O)O)c1F | 108 to 110 |
| Cn1cc(C(=O)CCn2ccnc2)c2ccccc21 | 121 to 123 |
| Cc1nc(N)c2nc(C)n(CCOCCCc3ccccc3)c2c1C | 118 to 119 |
| Nc1nc(-n2cc(C(=O)O)c(=O)c3cc(F)c(N4CC(O)C4)c(Cl)c32)c(F)cc1F | 235 to 238 |
| COC(=O)[C@H]1CC[C@H](c2[nH]nc3c2C(=O)c2c(NC(=O)NN4CCOCC4)cccc2-3)CC1 | 259 to 261 |
| CNc1nn(C(=O)NC(C)CCc2ccccc2Cl)c(=O)n1C (stereo unspecified) | 133 to 135 |
| CN(C)CC=C(c1ccc(-c2ccccc2)cc1)c1ccc(-c2ccccc2)cc1 | 94 to 95 |
| C[C@@H]1N=C(c2ccccc2F)c2cc([N+](=O)[O-])ccc2N(C)C1=O | 95 to 110 |
| CC(C)S(=O)(=O)Nc1ccc2c(=O)c3c(sc2c1)CC(C)(C)CC3 | 263 |
| O=C1c2ccccc2N2CCCN3CCN1C32 (stereo unspecified) | 144 to 146 |
| CCN(CC)C(=O)c1c(O)c(=O)cc(C)n1C | 128 to 130 |
| N#Cc1cccc(C(=O)N[C@H]2C[C@H](C(=O)O)Nc3cc(Cl)cc(Cl)c32)c1 (relative stereo) | 229 to 231 |

| SMILES | melting point [°C] |
| --- | --- |
| CC(C)(C)Oc1ccc(C(=O)NCCCCCCCNC(=O)c2ccc(OC(C)(C)C)cc2)cc1 | 135 to 136 |
| O=C1CCC(=O)N1Cc1nc2sc3c(c2c(-c2ccc(OCc4ccccc4)cc2)c1Cl)CCNC3 | 247 to 248 |
| COc1ccc(OC(c2ccc(OC)cc2)C(Cl)(Cl)Cl)cc1 (stereo unspecified) | 90 |
| CCN(CC)CCNC(=O)c1cc(Cl)c(N)cc1OCCCCS(C)=O (stereo unspecified) | 80 to 83 |
| CCNC(=O)[C@@H]1CCCN1C(=O)[C@H](C)NC(=O)C12CC3CC(CC(C3)C1)C2 | 116 to 118 |
| CC1(C)SC2C(NC(=O)Nc3ccccc3)C(=O)N2C1c1nnn[nH]1 (stereo unspecified) | 110 to 120 |
| COc1ccccc1NC(=O)Nc1nc(Nc2ccccc2-c2ccccc2)nc(N(CCC(=O)O)CCc2c[nH]c3ccccc23)n1 | 115 to 120 |
| COc1cc2c(cc1OC)C(c1cc(N)ccc1Cl)=NN=C(C)C2 | 188 to 190 |
| O=C1c2ccccc2C(=O)N1c1c(F)cc(Cl)c2c1CCCO2 | 198 to 200 |
| O=C(Nc1ccccc1)Nc1cccc(-c2ccc(CC34CCCN3C(=O)N(c3cc(Cl)cc(Cl)c3)C4=O)cc2)c1 (stereo unspecified) | 150 |
| N#Cc1cc(-c2ccoc2)c2ccc(OCc3cccc(-c4ccc(F)cc4)n3)cc2c1 | 168 to 170 |
| CC(C)(C)c1cc(C=C2SCN(CCN)C2=O)cc(C(C)(C)C)c1O | 176 to 178 |
| Cc1cccc(CC(Nc2ccc3c(c2)C(=O)OC3)C(=O)NC(C#N)CCCCc2cccc(C(=O)O)c2)c1 (stereo unspecified) | 91 to 94 |
| CC(C)N1CCN(c2ccc(-c3[nH]nc4c3C(=O)c3c(NC(=O)NN5CCOCC5)cccc3-4)cc2)CC1 | 253 |
| NS(=O)(=O)c1cccc(-c2cn(-c3nc(-c4ccc(C(F)(F)F)nc4)cc(C(F)F)n3)cn2)c1 | 220 |
| CCCC1=C(C#N)C(c2ccccc2Cl)c2c(n[nH]c2-c2cccc3ccccc23)N1 (stereo unspecified) | 254 |
| CCCc1cc(F)c2oc(Cc3ccc(OC)cc3)c(C)c2c1OC(C)=O | 85 to 88 |
| CCOC(=O)C=Nc1cc(Cl)ccc1C(=O)O | 166 to 167 |
| COc1cccc2c(C(F)(F)F)cc(N3CCNCC3)nc12 | 130 |
| CCCCOc1cc(CNCCN(CC)CC)cc(S(N)(=O)=O)c1Cc1ccccc1 | 89 to 93 |
| O=C(O)CN1C(=O)OC[C@@H]1c1ccccc1 | 106 to 108 |
| CN(C)CCN(C)c1ccc(Nc2cc(-c3cc(F)cc(N4CCc5c(sc6c5CCCC6)C4=O)c3CO)cn(C)c2=O)nc1 | 122 to 123 |

Further lines, results first:

| melting point [°C] | SMILES |
| --- | --- |
| 269 to 271 | Cc1nc2ccccc2n(-c2ccc(N)cc2)c1=O |
| 145 to 147 | CC(C)(C)OC(=O)N1CCNC(=O)C1Cc1ccc(OCc2ccccc2)cc1 (stereo unspecified) |
| 176 to 178 | Cc1ccc(S(=O)(=O)N(C)c2ccc(Cl)cc2C(N)=O)cc1 |
| > 270 | COC(=O)c1cc(-c2ccncc2)[nH]c1-c1ccncc1 |
| 100 to 102 | O=Cc1cccc2ccc(-c3ccccc3)nc12 |
| 142 to 143 | COC(=O)c1nsnc1N |
| 127 to 128 | CC(=O)Nc1cc(F)ccc1C |
| 208 to 209 | Cc1cccc(-c2nc3cccnn3c2-c2ccnc(Nc3ccccc3C)c2)c1 |
| 157 to 159 | O=C(Nc1ccccc1C(F)(F)F)c1c(O)c2ccccc2oc1=O |
| 144 to 146 | CN(C)C(=O)Cn1c(-c2cccc(Br)c2)nc2cccnc21 |
| 130 to 131 | c1csc(-c2nc3cc(COc4ccc(CCCCn5ccnc5)cc4)ccc3o2)c1 |
| 178 to 182 | CSc1nc(Cl)c(-c2ccc(C)cc2)c(NS(=O)(=O)c2ccc(C(C)(C)C)cc2)n1 |
| > 250 | Nc1nc(N)nc(-c2ccc(S(=O)(=O)c3ccccc3)cc2)n1 |
| 140 to 144 | CN(C)S(=O)(=O)c1ccc2c(c1)C(Cl)c1ccccc1C=C2 (stereo unspecified) |
| 116 | CCOC(=O)c1cc2ccc3c(c4ccccc4n3CC)c2n1C |
| 144 | COc1cc(-c2nc3ccccc3n2Cc2ccccc2C(F)(F)F)cc(OC)c1OC |
| 92 to 94 | COC(=O)c1ccc(/C=C/c2cnc3ccccc3c2)cc1 |
| 114 to 115 | COC(=O)c1ccccc1OCC(O)CNCCNC(=O)Cc1ccccc1 (stereo unspecified) |
| 95 to 96 | CCOC(=O)c1cn(Cc2ccccn2)nc1S(=O)(=O)NC(=O)Nc1nc(OC)cc(OC)n1 |
| 206 to 208 | COc1ccc(S(=O)(=O)Nc2ccc(Cl)nc2Nc2ccccc2)cc1 |
| 190 to 195 | O=C(O)CCCCSc1nc(-c2ccccc2)c(-c2ccccc2)[nH]1 |
| 106 to 108 | CC(C(N)=O)c1ccc(Oc2ccccc2F)cc1 (stereo unspecified) |
| 84 to 85 | Nc1nc(Nc2ccccc2)sc1C(=O)c1cccs1 |
| 188 to 189 | COc1ccc(S(=O)(=O)Nc2cccnc2Nc2ccc(C)cc2)cc1 |
| 188 | CN(C)C(=O)Nc1ccc(Oc2ccc3sncc3c2)c(C(F)(F)F)c1 |
| 194 | Cc1nc2cc(NS(=O)(=O)c3cc(Cl)ccc3Cl)ccc2o1 |
| 147 to 149 | O=C(O)c1ccccc1Oc1ccccc1O |
| 233 to 235 | COC(=O)Nc1coc2cc(NS(C)(=O)=O)c(Oc3ccccc3)cc2c1=O |
| 188 to 189 | CN1CCC(c2cc(-c3ccncc3)c(-c3cccc(C(F)(F)F)c3)nn2)CC1 |
| 82 to 83 | CCOc1cc(Oc2ccc(C(F)(F)F)cn2)ccc1CCCOc1nn(CC)cc1CC(=O)O |
